Calls of active or inactive are those of the source. The rule behind the calls is not given here.
Assays:
[1] = biological target: T1, Mushroom tyrosinase (Agaricus bisporus) (UniProt O42713+Q00024+C7FF04+C7FF05); experiment: Inhibition of cresolase activity of mushroom tyrosinase at 0 to 10.5 uM using 23 to 50.05 uM of 4-[(4-Methylphenyl) azo]-phenol as substrate
[2] = biological target: T1, Mushroom tyrosinase (Agaricus bisporus); experiment: Inhibition of cresolase activity of mushroom tyrosinase at <5 uM using 4-[(4-Methylphenyl) azo]-phenol as substrate
[3] = biological target: T1, Mushroom tyrosinase (Agaricus bisporus); experiment: Mixed type activation of cresolase activity of mushroom tyrosinase at 5 to 10.5 uM using 4-[(4-Methylphenyl) azo]-phenol as substrate by Lineweaver-Burk plot analysis
[4] = biological target: T1, Mushroom tyrosinase (Agaricus bisporus); experiment: Mixed type activation of cresolase activity of mushroom tyrosinase using 4-[(4-Methylphenyl) azo]-phenol as substrate by Dixon plot analysis
[5] = biological target: T1, Mushroom tyrosinase (Agaricus bisporus); experiment: Activation of cresolase activity of mushroom tyrosinase at >5 uM after 15 mins using 4-[(4-Methylphenyl) azo]-phenol as substrate
[6] = biological target: T1, Mushroom tyrosinase (Agaricus bisporus); experiment: Activation of cresolase activity of mushroom tyrosinase assessed as activation constant after 15 mins using 4-[(4-Methylphenyl) azo]-phenol as substrate
[7] = biological target: T1, Mushroom tyrosinase (Agaricus bisporus); experiment: Activation of cresolase activity of mushroom tyrosinase assessed as inverse of activation constant after 15 mins using 4-[(4-Methylphenyl) azo]-phenol as substrate
[8] = biological target: T1, Mushroom tyrosinase (Agaricus bisporus); experiment: Activation of cresolase activity of mushroom tyrosinase at <= 10 uM after 15 mins using 4-[(4-Methylphenyl) azo]-phenol as substrate relative to untreated control
[9] = biological target: T1, Mushroom tyrosinase (Agaricus bisporus); experiment: Activation of cresolase activity of mushroom tyrosinase at 18 uM using 4-[(4-Methylphenyl) azo]-phenol as substrate by Dixon plot analysis
[10] = biological target: T1, Mushroom tyrosinase (Agaricus bisporus); experiment: Activation of cresolase activity of mushroom tyrosinase at <150 uM using 4-[(4-Methylphenyl) azo]-phenol as substrate measured after 15 mins by spectrophotometric method
[11] = biological target: T1, Mushroom tyrosinase (Agaricus bisporus); experiment: Inhibition of cresolase activity of mushroom tyrosinase at >150 uM using 4-[(4-Methylphenyl) azo]-phenol as substrate measured after 15 mins by spectrophotometric method
[12] = biological target: T1, Mushroom tyrosinase (Agaricus bisporus); experiment: Inhibition of cresolase activity of mushroom tyrosinase at 0 to 450 uM using 18 to 61 uM of 4-[(4-Methylphenyl) azo]-phenol as substrate
[13] = biological target: T1, Mushroom tyrosinase (Agaricus bisporus); experiment: Activation of cresolase activity of mushroom tyrosinase at 50 to 150 uM using 4-[(4-Methylphenyl) azo]-phenol as substrate by Lineweaver-Burk plot analysis
Mushroom tyrosinase = Mushroom tyrosinase (Agaricus bisporus, UniProt O42713+Q00024+C7FF04+C7FF05); experiment: Inhibition of cresolase activity of mushroom tyrosinase using 4-[(4-Methylphenyl) azo]-phenol as substrate measured after 15 mins by spectrophotometric method
[14] = biological target: T1, Mushroom tyrosinase (Agaricus bisporus); experiment: Activation of cresolase activity of mushroom tyrosinase assessed as dissociation constant for substrate after 15 mins using 4-[(4-Methylphenyl) azo]-phenol as substrate
[15] = biological target: T1, Mushroom tyrosinase (Agaricus bisporus); experiment: Activation of cresolase activity of mushroom tyrosinase at <= 150 uM after 15 mins using 4-[(4-Methylphenyl) azo]-phenol as substrate relative to untreated control
O=C(O)/C=C/c1ccccc1 = experiment: (§1) Activation of cresolase activity of mushroom tyrosinase assessed as Vmax after 15 mins using 4-[(4-Methylphenyl) azo]-phenol as substrate; settings: Agaricus bisporus
O=C(O)c1ccccc1C(=O)O = experiment: as §1; settings: Agaricus bisporus

Mushroom tyrosinase (Agaricus bisporus) (from UniProt O42713+Q00024+C7FF04+C7FF05), sequence (C7FF05 whole entry, looked up): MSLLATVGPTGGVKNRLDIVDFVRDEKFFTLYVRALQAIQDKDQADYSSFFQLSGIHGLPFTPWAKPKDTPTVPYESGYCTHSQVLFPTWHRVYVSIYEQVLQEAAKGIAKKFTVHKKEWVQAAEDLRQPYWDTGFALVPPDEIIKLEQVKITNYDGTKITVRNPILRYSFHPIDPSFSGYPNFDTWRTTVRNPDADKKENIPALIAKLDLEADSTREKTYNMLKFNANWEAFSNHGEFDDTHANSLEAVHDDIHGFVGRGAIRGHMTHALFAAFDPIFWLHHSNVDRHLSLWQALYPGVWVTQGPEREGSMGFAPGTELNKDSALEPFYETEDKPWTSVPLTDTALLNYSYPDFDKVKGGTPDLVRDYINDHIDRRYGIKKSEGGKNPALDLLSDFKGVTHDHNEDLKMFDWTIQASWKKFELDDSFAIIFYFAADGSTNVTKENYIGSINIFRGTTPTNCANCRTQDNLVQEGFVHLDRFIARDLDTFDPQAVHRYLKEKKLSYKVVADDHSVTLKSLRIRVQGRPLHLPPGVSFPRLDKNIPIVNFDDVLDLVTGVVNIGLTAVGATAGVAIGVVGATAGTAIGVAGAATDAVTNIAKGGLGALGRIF
Mushroom tyrosinase (Agaricus bisporus) (from UniProt O42713+Q00024+C7FF04+C7FF05), sequence (C7FF04 whole entry, looked up): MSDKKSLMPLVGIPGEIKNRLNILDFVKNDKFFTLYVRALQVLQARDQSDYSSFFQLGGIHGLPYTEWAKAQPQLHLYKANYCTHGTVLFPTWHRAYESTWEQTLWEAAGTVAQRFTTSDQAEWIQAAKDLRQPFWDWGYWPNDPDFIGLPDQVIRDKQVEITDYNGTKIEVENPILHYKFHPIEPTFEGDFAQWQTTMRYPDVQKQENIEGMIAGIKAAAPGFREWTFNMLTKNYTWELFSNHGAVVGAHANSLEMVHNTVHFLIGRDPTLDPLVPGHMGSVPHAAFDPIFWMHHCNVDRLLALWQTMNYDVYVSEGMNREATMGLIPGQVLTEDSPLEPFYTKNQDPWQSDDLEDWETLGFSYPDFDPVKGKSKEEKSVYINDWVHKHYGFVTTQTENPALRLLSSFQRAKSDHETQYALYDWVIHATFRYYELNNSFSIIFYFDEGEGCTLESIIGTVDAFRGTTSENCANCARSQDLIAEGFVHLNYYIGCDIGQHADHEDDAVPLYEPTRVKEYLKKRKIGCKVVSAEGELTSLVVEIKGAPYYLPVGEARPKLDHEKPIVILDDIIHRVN
Mushroom tyrosinase (Agaricus bisporus) (from UniProt O42713+Q00024+C7FF04+C7FF05), sequence (Q00024 whole entry, looked up): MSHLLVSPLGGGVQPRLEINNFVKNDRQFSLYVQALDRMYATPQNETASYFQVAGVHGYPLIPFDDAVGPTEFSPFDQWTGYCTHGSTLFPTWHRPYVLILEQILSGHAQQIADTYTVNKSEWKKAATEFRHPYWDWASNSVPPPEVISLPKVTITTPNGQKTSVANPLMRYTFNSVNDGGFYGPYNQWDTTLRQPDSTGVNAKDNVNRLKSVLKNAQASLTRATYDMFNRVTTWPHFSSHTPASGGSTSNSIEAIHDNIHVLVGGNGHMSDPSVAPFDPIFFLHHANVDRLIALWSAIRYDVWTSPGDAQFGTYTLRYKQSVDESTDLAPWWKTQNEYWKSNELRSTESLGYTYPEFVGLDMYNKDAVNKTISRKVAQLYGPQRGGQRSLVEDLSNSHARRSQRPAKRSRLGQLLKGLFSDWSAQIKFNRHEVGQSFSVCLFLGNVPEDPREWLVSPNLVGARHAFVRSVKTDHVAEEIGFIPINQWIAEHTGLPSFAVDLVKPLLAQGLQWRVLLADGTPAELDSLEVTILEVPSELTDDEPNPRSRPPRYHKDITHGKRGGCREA
Mushroom tyrosinase (Agaricus bisporus) (from UniProt O42713+Q00024+C7FF04+C7FF05), sequence (O42713 whole entry, looked up): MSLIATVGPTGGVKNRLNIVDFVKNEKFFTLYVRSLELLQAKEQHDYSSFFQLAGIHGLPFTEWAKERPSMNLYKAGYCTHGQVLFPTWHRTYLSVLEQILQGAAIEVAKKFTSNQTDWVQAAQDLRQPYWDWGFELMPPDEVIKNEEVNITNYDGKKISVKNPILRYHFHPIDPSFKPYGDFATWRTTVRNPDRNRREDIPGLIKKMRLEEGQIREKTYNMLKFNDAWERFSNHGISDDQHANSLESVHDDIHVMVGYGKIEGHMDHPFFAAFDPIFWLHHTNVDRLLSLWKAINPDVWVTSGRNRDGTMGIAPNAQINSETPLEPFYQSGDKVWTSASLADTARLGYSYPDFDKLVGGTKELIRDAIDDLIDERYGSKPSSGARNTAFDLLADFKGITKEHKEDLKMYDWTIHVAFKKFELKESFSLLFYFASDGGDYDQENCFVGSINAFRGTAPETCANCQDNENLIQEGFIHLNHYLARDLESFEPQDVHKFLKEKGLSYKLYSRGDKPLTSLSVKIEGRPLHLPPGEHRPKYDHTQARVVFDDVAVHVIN

With `O=C(O)/C=C/c1ccccc1` the inhibition [1] was “Active”, the inhibition [2] was “Active” and the Activity [3] was “Active”. The Activity [4] was “Active”, the Activity [5] was “Active” and the KA [6] was 5.41 µM. It also gave a Ka [7] of 185 mM⁻¹ and a fold change (FC) [8] of 2.
In the case of `O=C(O)c1ccccc1C(=O)O` [PHTHALIC ACID], the Activity [9] is reported as “Active”, the Activity [10] is reported as “Active” and the inhibition [11] is reported as “Active”. For the same molecule, the inhibition [12] was “Active”, the Activity [13] was “Active” and the IC50 (Mushroom tyrosinase) was 271.79 µM. It also gave a Ki (Mushroom tyrosinase) of 100 µM, a K [14] of 67.2 µM and a KA [6] of 10.9 µM. It also gave a Ka [7] of 91.3 mM⁻¹ and an Activity [15] of 11 to 23%.
Molecule “Mushroom tyrosinase (Agaricus bisporus) (from UniProt O42713+Q00024+C7FF04+C7FF05)” has a Vmax (O=C(O)/C=C/c1ccccc1) of 7.9 µM/min and a Vmax (O=C(O)c1ccccc1C(=O)O) of 14.5 µM/min.
